Values quoted from earlier work in patent US20090029952A1, “UNIQUE COMBINATION OF […] ACID, ETHYLENEDIAMINE DIHYDROIODIDE (EDDI), AND BUFFER FOR USE IN ANIMAL DRINKING WATER” (priority 2007, published 2009).

CC(=O)Oc1ccccc1C(=O)O [aspirin, acetylsalicylic acid]
maximum solubility of aspirin alone in water (alone in water, or in the presence of sodium acetate or sodium diacetate): 0.1 % by weight | solubility in water (water, from chemical handbooks): 0.1%
